Consider 30 compounds from patent publication US10000452B1, “Quinolone-based compounds, formulations, and uses thereof” (University of South Florida, priority 2016, dated 2018).

Where two headings read alike, the source gives them in different places.

In data set [1] the test system is malarial strain W2 (pyrimethamine and chloroquine-resistant). The data set is described as follows: in vitro antimalarial activity against multidrug resistant strain W2. It is filed as cell-based, P. falciparum. Conditions: for EC50: Plasmodium falciparum, read-out: EC50 W2 (nM); for EC50 W2 (nM): blood stage in vitro, strain W2.
Data set [2] concerns malarial strain TM90-C2B (mefloquine, chloroquine, atovaquone, and pyrimethamine-resistant). In words: microbe, parasite or virus in culture. Format: cell-based, P. falciparum. Conditions: for EC50: Plasmodium falciparum, TM90, read-out: EC50 TM90-C2B (nM); for RI: RI = EC50 TM90-C2B/EC50 W2; for EC50 TM90-C2B (nM): blood stage in vitro, atovaquone-resistant strain TM90-C2B. An excerpt:
Ideally, the RI of a compound should lie between 0.3 and 3.0 in order to avoid rapidly inducing resistance in the parasite. […]

Data set [3] concerns J774 mammalian cells. The data set is described as follows: cytotoxicity to J774 cells. Format: cell-based. Conditions: Mus musculus. How it is done: This allowed a simplified method for comparing the different assays being simultaneously run. Additionally, each compound was also tested for cytotoxicity using mammalian J774 cell lines in a 96-well plate format.^12-14, 16
The subject of data set [4] is P. berghei sporozoites expressing luciferase. In words: in vitro liver stage activity, luciferase sporozoites infecting HEPG2 hepatoma cells. Format: cell-based. Conditions: HEPG2 cells; for EC50: Plasmodium berghei.
Data set [5] deals with Pb-infected mice. In words: in vivo efficacy scouting assay against blood stages. Further details: species or system P. berghei; mice. The conditions noted are these: Example 2: two mice, single 50 mg/kg oral dose in PEG400 on day 1 PE. Here is the method:
The screening involved a single oral 50 mg/kg dose 1 day post infection (PI) and an assessment of parasitemia on days 3 PI and 6 PI (Table 6).
The screening was performed by treating two infected mice with a single 50 mg/kg oral dose of test compound suspended in PEG400 on day 1 postexposure (PE) followed by assessing parasitemia on days 3 and 6 PE.

Data set [6] in a line: aqueous solubility (LC/MS- or HPLC-based assay). It is filed as physicochemical. Conditions: aqueous solution (buffer not named), aqueous buffer, Example 2, at any given pH; read-out: solubility. An excerpt:
Furthermore, to profile the properties of the piperazinyl-4(1H)-quinolones, and to identify potential limitations, aqueous solubility and lipophilicity log D were experimentally determined via LC/MS-based assays as described by the Manetsch laboratory previously^8,10,31,32 (Tables 9-12). Encouragingly, the piperazinyl-4(1H)-quinolones were much more soluble than the previously described phenoxyethoxy-4(1H)-quinolone analogues.^19 As expected, the solubility of all compounds was affected by pH, with better solubility under more acidic conditions.
In parallel to testing the compounds for in vitro antimalarial activity, a limited structure-property relationship (SPR) study focusing on log D and aqueous solubility was conducted to assess potential physiochemical liabilities (FIG. 22). […] For these reasons, physicochemical properties were not strongly considered as selection criteria for in vivo efficacy studies.

`COc1cc2c(=O)c(Br)c(C)[nH]c2cc1CN1CCN(c2ccc(C(F)(F)F)cc2)CC1` [Compound 8at, 3-Bromo-6-methoxy-2-methyl-7-((4-(4-(trifluoromethyl)phenyl)piperazin-1-yl)methyl)quinolin-4(1H)-one]: the EC50 in data set [1] was 128 nM; in data set [2] it was more than 5000 nM; in data set [3] (J774, read-out: EC50 J774 (μM)) it was more than 20 µM. This compound gave an RI in data set [2] of more than 39.1.
With `COC(=O)c1c[nH]c2cc(OCCOc3ccccc3)c(C)cc2c1=O` [Compound 6ac, Methyl 6-Methyl-4-oxo-7-(2-phenoxyethoxy)-1,4-dihydroquinoline-3-carboxylate], the EC50 in data set [1] came out at 2.01 nM; in data set [2], 499 nM; in data set [4], 152 nM.
Consider `COC(=O)c1c[nH]c2cc(OCCOc3ccccc3)c(OC)cc2c1=O` [Compound 6aa, Methyl 6-Methoxy-4-oxo-7-(2-phenoxyethoxy)-1,4-dihydroquinoline-3-carboxylate], for which the RI in data set [2] stood at 1.60.
For “Methyl 4-oxo-7-(4-phenylpiperazin-1-yl)-1,4-dihydroquinoline-3-carboxylate [Compound 8a]”, the “EC50 W2 (nM)” value in data set [1] was “inhibition against W2 was lost”. In data set [2], this compound came in with an RI of approximately 1.
With `CCCCc1cc2c(=O)c(I)c[nH]c2cc1OCCOc1ccccc1` [Compound 16b, 6-Butyl-3-iodo-7-(2-phenoxyethoxy)quinolin-4(1H)-one], the EC50 in data set [1] stood at 1.23 nM; in data set [2], 6.04 nM. The same compound displayed an RI in data set [2] of 4.91.
For the compound `Cc1[nH]c2cc(CN3CCN(c4ccc(C(F)(F)F)cc4)CC3)ccc2c(=O)c1Cl` [Compound 8ar, 3-Chloro-2-methyl-7-((4-(4-(trifluoromethyl)phenyl)piperazin-1-yl)methyl)quinolin-4(1H)-one], the EC50 is 139 nM in data set [1]; 1510 nM in data set [2]; more than 20 µM in data set [3] (J774, read-out: EC50 J774 (μM)). The RI in data set [2] is reported as 10.9.
With `COC(=O)c1c[nH]c2ccc(OCCc3ccccc3)cc2c1=O` [Compound 6f, Methyl 4-Oxo-6-phenethoxy-1,4-dihydroquinoline-3-carboxylate], the “EC50 W2 (nM)” value in data set [1] is given as “double-digit nM”.
On to `CCCCc1cc2c(=O)c(C(=O)O)c[nH]c2cc1OCCOc1ccccc1` [Compound 7b, 6-Butyl-4-oxo-7-(2-phenoxyethoxy)-1,4-dihydroquinoline-3-carboxylic Acid], for which the EC50 in data set [1] came to 64 nM; in data set [2] it was 1110 nM; in data set [4], 0.267 nM.
Regarding `CCCCc1ccc2[nH]cc(C(=O)OC)c(=O)c2c1` [Compound 6c, Methyl 6-Butyl-4-oxo-1,4-dihydroquinoline-3-carboxylate], the EC50 in data set [1] is 1.58 nM. Further, in data set [2], the EC50 came out at 222 nM and the RI came out at 141. In data set [4], the “EC50 Pb (nM)” value is recorded as “subnanomolar” and the EC50 was determined as 0.819 nM.
On to `COC(=O)c1c[nH]c2ccc(OCCCc3ccccc3)cc2c1=O` [Compound 6g, Methyl 4-Oxo-6-(3-phenylpropoxy)-1,4-dihydroquinoline-3-carboxylate], for which the “EC50 W2 (nM)” value in data set [1] is recorded as “double-digit nM”. The “% inhibition on day 6 PE” value in data set [5] was “lack of significant parasitemia reduction”.
Turning to `COC(=O)c1c[nH]c2ccc(-c3ccccc3)cc2c1=O` [Compound 6u, Methyl 4-Oxo-6-phenyl-1,4-dihydroquinoline-3-carboxylate], in data set [1], the “EC50 W2 (nM)” value was “devoid of activity”.
On to `COC(=O)c1c[nH]c2cc(OCCOc3ccccc3)c(Br)cc2c1=O` [Compound 6z, Methyl 6-Bromo-4-oxo-7-(2-phenoxyethoxy)-1,4-dihydroquinoline-3-carboxylate], for which the EC50 in data set [1] was determined as 4.47 nM; in data set [2] it was 847 nM; in data set [4], 0.336 nM.
Take `CCCCc1cc2c(=O)c(C(=O)NC)c[nH]c2cc1OCCOc1ccccc1` [Compound 13a, 6-Butyl-N-methyl-4-oxo-7-(2-phenoxyethoxy)-1,4-dihydroquinoline-3-carboxamide]: the figures for the EC50 in data set [1] and in data set [2] were 13.3 nM and 3980 nM, respectively.
For `Cc1[nH]c2cc(CN3CCN(c4ccc(C(F)(F)F)cc4)CC3)ccc2c(=O)c1Br` [Compound 8aq, 3-Bromo-2-methyl-7-((4-(4-(trifluoromethyl)phenyl)piperazin-1-yl)methyl)quinolin-4(1H)-one], the EC50 in data set [1] was 121 nM; in data set [2], 95.4 nM; in data set [3] (J774, read-out: EC50 J774 (μM)), more than 20 µM. The same compound registered an RI in data set [2] of 0.79.
For `CCCCc1cc2c(=O)c(C(=O)OCC)c[nH]c2cc1OCCOc1ccccc1` [Compound 6af, Ethyl 6-Butyl-4-oxo-7-(2-phenoxyethoxy)-1,4-dihydroquinoline-3-carboxylate], in data set [1], the EC50 is 0.143 nM. Further, the “EC50 Pb (nM)” value in data set [4] is listed as “subnanomolar”.
In the case of `COC(=O)c1c[nH]c2cc(OCCOc3ccccc3)c(Cl)cc2c1=O` [Compound 6ab, Methyl 6-Chloro-4-oxo-7-(2-phenoxyethoxy)-1,4-dihydroquinoline-3-carboxylate], the EC50 in data set [1] was found to be 9.93 nM; in data set [2], 617 nM; in data set [4], 0.063 nM.
`CCCCc1cc2c(=O)c(C(C)=O)c[nH]c2cc1OCCOc1ccccc1` [Compound 6ag, 3-Acetyl-6-butyl-7-(2-phenoxyethoxy)quinolin-4(1H)-one]: in data set [1], the EC50 came to 9.67 nM.
Turning to `COC(=O)c1c[nH]c2ccccc2c1=O` [Compound 6d, Methyl 4-Oxo-1,4-dihydroquinoline-3-carboxylate], in data set [1], the “EC50 W2 (nM)” value was “retained respectable potency”. The “EC50 TM90-C2B (nM)” value in data set [2] was “devoid of any activity”.
For the compound `C[C@H]1[C@@H](O)O[C@@H]2O[C@@]3(C)CC[C@H]4[C@H](C)CC[C@@H]1[C@@]24OO3` [DHA, dihydroartemisinin, reference compound], the EC50 in data set [3] (J774, read-out: EC50 J774 (μM)) came out at 1.53 µM.
As to `COC(=O)c1c[nH]c2cc(F)ccc2c1=O` [Compound 6n, Methyl 7-Fluoro-4-oxo-1,4-dihydroquinoline-3-carboxylate], the results for the EC50 in data set [1] and in data set [2] were 26.2 nM and 395 nM, respectively.
`CCCCc1cc2c(=O)c(C(=O)NC(C)C)c[nH]c2cc1OCCOc1ccccc1` [Compound 13e, 6-Butyl-N-isopropyl-4-oxo-7-(2-phenoxyethoxy)-1,4-dihydroquinoline-3-carboxamide]: the “EC50 W2 (nM)” value in data set [1] was “completely inactive”.
On the same count and under the same terms, then `COC(=O)c1c[nH]c2cc(Cl)ccc2c1=O` [Compound 6l, Methyl 7-Chloro-4-oxo-1,4-dihydroquinoline-3-carboxylate], with “devoid of antimalarial activity”.
As for `COC(=O)c1c[nH]c2cc(OCCOc3ccccc3)ccc2c1=O` [Compound 6a, Methyl 4-Oxo-7-(2-phenoxyethoxy)-1,4-dihydroquinoline-3-carboxylate], in data set [1], the EC50 amounted to 2.8 nM. Also, the RI in data set [2] was determined as 26.3. In data set [4], the “EC50 Pb (nM)” value is “subnanomolar” and it took 0.286 nM to reach a half-maximal effect (EC50).
As to `CCN(CC)CCCC(C)Nc1ccnc2cc(Cl)ccc12` (stereo not drawn) [CQ, Chloroquine, reference compound], in data set [3] (J774, cytotoxicity, 96 well plate format, read-out: EC50 J774), the EC50 is 47.2 µM.
Consider `CCCCc1cc2c(=O)c(Br)c[nH]c2cc1OCCOc1ccccc1` [Compound 16d, 3-Bromo-6-butyl-7-(2-phenoxyethoxy)quinolin-4(1H)-one], for which the EC50 in data set [1] came out at 4.64 nM; in data set [2], 48.7 nM.
`CCCCc1cc2c(=O)c(C#N)c[nH]c2cc1OCCOc1ccccc1` [Compound 6ad, 6-Butyl-4-oxo-7-(2-phenoxyethoxy)-1,4-dihydroquinoline-3-carbonitrile]: the “EC50 W2 (nM)” value in data set [1] is reported as “high double-digit nM range”.
As to `CCCCc1cc2c(=O)c(C(=O)NCCO)c[nH]c2cc1OCCOc1ccccc1` [Compound 13d, 6-Butyl-N-(2-hydroxyethyl)-4-oxo-7-(2-phenoxyethoxy)-1,4-dihydroquinoline-3-carboxamide], the solubility in data set [6] is more than 20 µM.
Consider `CCCCc1cc2c(=O)c(Cl)c(C)[nH]c2cc1OCCOc1ccccc1` [Compound 16e, 6-Butyl-3-chloro-2-methyl-7-(2-phenoxyethoxy)quinolin-4(1H)-one], for which, in data set [1], the EC50 came out at 6.92 nM. Moreover, in data set [2], the EC50 is 67.7 nM and the RI was 9.79.
Regarding `COC(=O)c1c[nH]c2cc(-c3ccccc3)ccc2c1=O` [Compound 6m, Methyl 4-Oxo-7-phenyl-1,4-dihydroquinoline-3-carboxylate], in data set [1], the “EC50 W2 (nM)” value is listed as “devoid of antimalarial activity”.
Consider “Methyl 6-methyl-4-oxo-7-(4-phenylpiperazin-1-yl)-1,4-dihydroquinoline-3-carboxylate [Compound 8c]”, for which, in data set [1], the “EC50 W2 (nM)” value is “retained respectable potency”. The “EC50 TM90-C2B (nM)” value in data set [2] is “devoid of any activity”.
